We go through two molecules from PMC12024234, “Antioxidant, Anti-Inflammatory, and Oral Bioavailability of Novel Sulfonamide Derivatives of Gallic Acid” (Antioxidants, 2025).

The nature of data set [1]: DPPH radical scavenging assay. As to conditions: for DPPH radical scavenging activity (in words): across tested concentrations 1 to 1000 μM. The method, then: The antioxidant properties of the compounds under study were examined using the 2,2-Diphenyl-1-picrylhydrazyl (DPPH) assay, following a well-established protocol. A DPPH solution was prepared at a concentration of 0.1 mM in methanol. […] To ensure proper reaction, the mixtures were kept in the dark and incubated at room temperature for 30 min. After incubation, the absorbance of each sample was measured at 517 nm using a UV-VIS spectrophotometer. Gallic acid was used as the reference standard, and methanol served as the blank control.
The ability of the compounds to scavenge free radicals was determined by observing the reduction of DPPH at 517 nm, with lower absorbance values indicating higher antioxidant activity. The half-maximal inhibitory concentration (IC50), defined as the concentration of the compound needed to neutralize 50% of the DPPH radicals, was calculated from the dose–response curve. All experiments were performed in triplicate, and the results are reported as the mean of three independent trials. This method is widely recognized for its reliability and reproducibility in evaluating the antioxidant potential of chemical compounds.
Background: The DPPH test is a chemical assay of radical scavenging.

In data set [2] the test system is HIEC-6 cells. Description: Cell viability CCK-8 assay in HIEC-6. The format is cell-based, Human. As to conditions: 24 h incubation. As to the method:
Human intestinal epithelial cells (HIEC-6), originally obtained from the American Type Culture Collection (ATCC), were cultured in Opti-MEM™ I Reduced Serum Medium (Cat. No. 31985) supplemented with 20 mM HEPES, 10 mM L-glutamine, 10 ng/mL epidermal growth factor, and 4% fetal bovine serum (FBS) (New York, NY, USA). Cells were maintained in a humidified 5% CO2 incubator at 37 °C. Cell viability was assessed using the CCK-8 assay, a colorimetric method based on the reduction of water-soluble tetrazolium salts (WST-8) to a water-soluble formazan dye, with the resulting color intensity proportional to the number of viable cells. Briefly, cells were harvested at approximately 80% confluence, detached using trypsin-EDTA, and centrifuged at 1000 rpm for 5 min. The cell pellet was resuspended in fresh medium, and the density was adjusted to 1 × 10^6 cells/mL. A volume of 100 µL (1 × 10^5 cells/well) was seeded into a 96-well plate, with one well containing the medium only as background control. […] Subsequently, 10 µL of CCK-8 reagent was added to each well, and the plate was incubated for 4 h. Absorbance was measured at 450 nm using a microplate reader, results are expressed as the mean ± standard deviation (SD).

Data set [3] relates to intracellular reactive oxygen species (ROS) levels in HIEC-6 cells. Briefly: DCFDA / H2DCFDA ROS assay in HIEC-6. The format is cell-based, Human. The conditions noted are these: HIEC-6, 0.2–50 µM. The method, then: The antioxidant DCFDA assay was conducted in HIEC-6 according to the protocol provided by the manufacturer Abcam (ab11385) and as mentioned by. Cells were seeded at a cell density of 2.5 × 10^4 cells/well in a clear bottom black 96-well microplate and allowed to adhere overnight at 37 °C in a CO2 incubator. Cells were washed and incubated in 100 µL of the diluted staining DCFDA solution, prepared by diluting 20 mM DCFDA in PBS, for 45 min at 37 °C in the dark Then, the DCFDA solution was removed and GA, 3,4,5-THBS, or 3,4,5-TMBS was added to the cells at different concentrations, in addition to doxorubicin, used as a positive control. Unstained cells were designated as blank. Fluorescence was recorded at Ex/Em = 485/535 nm.
The antioxidant activity of GA, 3,4,5-THBS, and 3,4,5-TMBS was assessed in HIEC-6 cells using the fluorescent probe 2′,7′-dichlorodihydrofluorescein diacetate (H2DCFDA). This assay quantifies the oxidation of H2DCFDA to 2′,7′-dichlorofluorescein (DCF), which serves as a marker for intracellular reactive oxygen species (ROS) levels. Cells were exposed to compound concentrations ranging from 0.2 to 50 µM, and the resulting fluorescence intensities were compared to a control group treated with H2DCFDA alone.

The nature of data set [4]: Oral bioavailability / pharmacokinetics in rats. The format is in vivo, Sprague Dawley rats. As to conditions: for Cmax / AUC(0-inf) / AUC(0-t) / CL/F / half-life / MRT inf / Tmax: male, Sprague Dawley; for Cmax / AUC(0-inf) / AUC(0-t) / CL/F / half-life / MRT inf / Tmax / Vz: rat serum; for Cmax: 100 mg/kg (table: 100 mg dose); for AUC(0-inf) / AUC(0-t) / CL/F / half-life / MRT inf / Tmax / Vz / Distribution volume at the terminal phase (Vz) relative to GA: 100 mg/kg; for MRT inf: n = 6, read-out: MRT0–∞; for Tmax / Distribution volume at the terminal phase (Vz) relative to GA: rat; for Tmax: serum, po. As to the method: Male Sprague Dawley rats, aged 7–9 weeks and weighing 220 ± 20 g on average, were used for bioavailability studies. The animals were housed in the Laboratory Animal Research Unit at the University of Petra Pharmaceutical Center under controlled conditions: a temperature of 23 ± 2 °C, humidity of 55–65%, and a 12 h light/dark cycle. Prior to the experiments, the rats underwent a 10-day acclimatization period with free access to standard food and water. All procedures complied with the University of Petra’s animal use guidelines, which adhere to the standards of the Federation of European Laboratory Animal Sciences Association (FELASA). The rats were divided into three groups (n = 6 per group) and administered suspensions of GA, 3,4,5-TMBS, or 3,4,5-THBS prepared in 5% carboxymethylcellulose. Each compound was administered orally at a dose of 100 mg/kg, based on previous studies. Blood samples were collected from the retro-orbital plexus at 0.5, 1, 2, 3, 4, 6, 10, and 24 h post-administration. The samples were centrifuged at 5000 rpm for 10 min, and the serum was mixed with acetonitrile in a 1:3 ratio. After a second centrifugation at 5000 rpm for 15 min, the supernatant was collected for high-performance liquid chromatography (HPLC) analysis. HPLC analysis was conducted using a Shimadzu Class VP series system equipped with an LC-10AT VP pump, an SIL-10AD VP autosampler, and an SCL-10AVP system (Shimadzu, Kyoto, Japan). A C18 column (25 cm × 4.6 mm, 5 μm) was used, with a photodiode array detector set to a wavelength range of 200–400 nm. The mobile phase for TMBS and THBS consisted of a 50:50 (v/v) mixture of deionized water and acetonitrile containing 0.1% trifluoroacetic acid, flowing at 1 mL/min. For GA, the mobile phase was a 70:30 mixture of methanol and a water/sulfuric acid solution (100:2), also at a flow rate of 1 mL/min. The retention times for THBS and TMBS were 2.39 and 3.47 min, respectively, while GA eluted at 2.4 min, all detected at 254 nm. Results were analyzed using Lab Solution Software LC (version 5.3) and represent the average of three measurements.

The structures appear in SMILES notation.

What is called EC50 is the concentration needed to bring the measured effect to its halfway point. The low end stands for higher potency in that assay, the high end for lower potency in that assay. As a reminder, the IC50 is the concentration that inhibits the measured activity by half. A high value points to weaker potency in that assay. A word on the Cmax: it is the highest concentration seen after dosing. As a reminder, the AUC(0-inf) is the area under the concentration-time curve extrapolated to infinity. A lower AUC(0-inf) goes with low exposure. Broadly, the AUC(0-t) is the area under the concentration-time curve up to a stated or last time point. For orientation: CL/F means clearance divided by bioavailability, as obtained after extravascular dosing. One may read the half-life as the time needed for the level to fall by half in the phase considered. Read a high half-life as slow decline. The Tmax is the time from dosing to the highest level. As to `NS(=O)(=O)c1cc(O)c(O)c(O)c1` [3,4,5-THBS, 3,4,5-trihydroxybenzenesulfonamide], the EC50 in data set [1] was approximately 27 µM. The “DPPH radical scavenging activity” value in data set [1] (at 1000 µM) was “exceeding 90%”. Further, in data set [1] (at 1000 µM (abstract)), the ROS scavenging activity came to 93%. Further, the IC50 in data set [2] stood at 35.5 ± 1.52 µM. Further, the IC50 in data set [2] (Homo sapiens, HIEC-6, 24 h) was 35 µM. In data set [3], the “ROS levels (fluorescence intensity) relative to control” value was “potent antioxidant activity”. Moreover, in data set [4] (n = 6), the highest level (Cmax) was 9560 ± 1900 ng/mL, the total exposure AUC(0-inf) is 24200 ± 7370 ng·h/mL, the AUC(0-t) came to 24200 ± 270 ng·h/mL and the CL/F was 73.2 mL/min/kg. In data set [4] (n = 6), the half-life was 2.1 ± 1.3 h, the Tmax was determined as 2 ± 0.1 h and the Vz is reported as 7.39 ± 2.16 (mg)/(μg/mL). In data set [4], the MRT inf was 2.69 ± 0.36 h, the Tmax was 2 h and the “Distribution volume at the terminal phase (Vz) relative to GA” value is recorded as “approximately ten-fold lower than that of GA”.
As to `COc1cc(S(N)(=O)=O)cc(OC)c1OC` [3,4,5-TMBS, 3,4,5-trimethoxybenzenesulfonamide], the “DPPH radical scavenging activity (in words)” value in data set [1] is “negligible effects”. Further, in data set [1] (listed as TMBS), the “DPPH radical scavenging activity (in words)” value is listed as “minimal scavenging activity”. Further, in data set [2], inhibition was half-maximal at 33.4 ± 0.7 µM (IC50). In addition, 33 µM corresponded to half-maximal inhibition in data set [2] (Homo sapiens, HIEC-6, 24 h) (IC50). Moreover, the “ROS levels (fluorescence intensity) relative to control” value in data set [3] is given as “potent antioxidant activity”. In data set [4] (n = 6), the Cmax is 25800 ± 6030 ng/mL, the AUC(0-inf) stood at 386000 ± 43800 ng·h/mL, the AUC(0-t) was found to be 173000 ± 49300 ng·h/mL and the CL/F was 6.17 mL/min/kg. In addition, in data set [4] (n = 6), the half-life is 7.17 ± 1.62 h, the Tmax turned out to be 2.88 ± 1.31 h and the Vz was 3.20 ± 0.55 (mg)/(μg/mL). For the same molecule, in data set [4], the MRT inf came to 11.9 ± 0.61 h, the Tmax was 2.87 h and the “Distribution volume at the terminal phase (Vz) relative to GA” value was “approximately ten-fold lower than that of GA”.
